Reference: patent US8288419B2, “Aminopyrazole derivatives” (Actelion Pharmaceuticals, Ltd, priority 2007, dated 2012)
pEC50: −log10 of the molar value.

Biological target: T1, recombinant human ALX receptor (Homo sapiens, UniProt P25090)
T1 construct: expressed in transfected cells; host or cells: HEK293 (HEK293-hALXR-Gα16)
T1 sequence (P25090 1-351): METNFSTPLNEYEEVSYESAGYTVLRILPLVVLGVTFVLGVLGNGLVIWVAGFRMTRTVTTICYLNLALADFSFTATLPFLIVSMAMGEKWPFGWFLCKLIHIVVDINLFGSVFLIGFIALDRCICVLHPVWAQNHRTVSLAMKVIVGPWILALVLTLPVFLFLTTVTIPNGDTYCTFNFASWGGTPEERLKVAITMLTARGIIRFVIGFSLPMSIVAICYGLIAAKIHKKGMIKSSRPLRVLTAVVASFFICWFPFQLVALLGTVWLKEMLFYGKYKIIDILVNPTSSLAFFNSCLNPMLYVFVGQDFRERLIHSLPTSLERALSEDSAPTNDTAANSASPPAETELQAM
Assay: Intracellular calcium measurements (FLIPR), ALX receptor agonistic activity
Type: cell-based
Details: HEK293-hALXR-Gα16 cells, Fluo-4 calcium fluorescence, normalized to 10 nM WKYMVm
Protocol: The ALX receptor agonistic activity of the compounds of formula (I) is determined in accordance with the following experimental method.
Intracellular Calcium Measurements:
Cells expressing recombinant human ALX receptor and the G-protein Gα16 (HEK293-hALXR-Gα16) were grown to 80% confluency in Growing Medium (GM). […] Stock solutions of test compounds were made up at a concentration of 10 mM in DMSO, and serially diluted in AB to concentrations required for activation dose response curves. WKYMVm (Phoenix Peptides) was used as a reference agonist. A FLIPR384 instrument (Molecular Devices) was operated according to the manufacturer's standard instructions, adding 4 μl of test compound dissolved at 10 mM in DMSO and diluted prior to the experiment in assay buffer to obtain the desired final concentration. Changes in fluorescence were monitored before and after the addition of test compounds at lex=488 nm and lem=540 nm. Emission peak values above base level after compounds addition were exported after base line subtraction. Values were normalized to high-level control (WKYMVm compound, 10 nM final concentration) after subtraction of the base line value (AB addition). The program XLlfit 3.0 (IDBS) was used to fit the data to a single site dose response curve of the equation (A+((B−A)/(1+((C/x)^D)))) and to calculate the EC50 values.

Structure (SMILES) | pEC50
CCc1ccccc1COC(=O)Nc1cnn(Cc2ccc(C(C)(F)F)o2)c1 [Example 314, {1-[5-(1,1-Difluoro-ethyl)-furan-2-ylmethyl]-1H-pyrazol-4-yl}-carbamic acid 2-ethyl-benzyl ester] | 7.57
CC(=O)c1ccc(Cn2cc(NC(=O)OCc3ccc(C(F)(F)F)cc3)cn2)o1 [Example 63, [1-(5-Acetyl-furan-2-ylmethyl)-1H-pyrazol-4-yl]-carbamic acid 4-trifluoromethyl-benzyl ester] | 7.28
COc1ccc(-c2ocnc2C(=O)Nc2ccn(Cc3ccc(C(C)=O)o3)n2)cc1 [Example 48, 5-(4-Methoxy-phenyl)-oxazole-4-carboxylic acid [1-(5-acetyl-furan-2-ylmethyl)-1H-pyrazol-3-yl]-amide] | 6.70
CC(=O)CCCCn1ccc(NC(=O)/C=C/c2ccccc2C(F)(F)F)n1 [Example 181, (E)-N-[1-(5-Oxo-hexyl)-1H-pyrazol-3-yl]-3-(2-trifluoromethyl-phenyl)-acrylamide] | 7.17
CC(F)CCCCn1cc(NC(=O)OCc2ccccc2Cl)cn1 (centres unmarked) [Example 236, [1-(5-Fluoro-hexyl)-1H-pyrazol-4-yl]-carbamic acid 2-chloro-benzyl ester] | 6.93
CC(=O)c1ccc(Cn2ccc(NC(=O)OCc3cc(F)c(F)cc3F)n2)o1 [Example 24, [1-(5-Acetyl-furan-2-ylmethyl)-1H-pyrazol-3-yl]-carbamic acid 2,4,5-trifluoro-benzyl ester] | 7.48
CC(F)(F)c1ccc(Cn2cc(NC(=O)OCc3ccccc3Cl)cn2)o1 [Example 199, {1-[5-(1,1-Difluoro-ethyl)-furan-2-ylmethyl]-1H-pyrazol-4-yl}-carbamic acid 2-chloro-benzyl ester] | 7.48
CC(F)(F)CCCCn1ccc(NC(=O)c2ncoc2-c2ccccc2)n1 [Example 202, 5-Phenyl-oxazole-4-carboxylic acid [1-(5,5-difluoro-hexyl)-1H-pyrazol-3-yl]-amide] | 6.05
CC(=O)c1ccc(Cn2cc(NC(=O)c3ncsc3-c3cccc(Cl)c3)cn2)o1 [Example 120, 5-(3-Chloro-phenyl)-thiazole-4-carboxylic acid [1-(5-acetyl-furan-2-ylmethyl)-1H-pyrazol-4-yl]-amide] | 6.69
CC(=O)CCCCn1cc(NC(=O)/C=C/c2ccccc2Cl)cn1 [Example 157, (E)-3-(2-Chloro-phenyl)-N-[1-(5-oxo-hexyl)-1H-pyrazol-4-yl]-acrylamide] | 6.48
O=C(Nc1cnn(Cc2ccc(C(=O)C3CC3)o2)c1)OCc1ccccc1Cl [Example 3, [1-(5-Cyclopropanecarbonyl-furan-2-ylmethyl)-1H-pyrazol-4-yl]-carbamic acid 2-chloro-benzyl ester] | 6.69
COc1cccc(/C=C/C(=O)Nc2cnn(Cc3ccc(C(C)=O)o3)c2)c1OC [Example 93, (E)-N-[1-(5-Acetyl-furan-2-ylmethyl)-1H-pyrazol-4-yl]-3-(2,3-dimethoxy-phenyl)-acrylamide] | 6.68
CC(F)(F)c1ccc(Cn2ccc(NC(=O)c3ncoc3-c3ccccc3)n2)o1 [Example 198, 5-Phenyl-oxazole-4-carboxylic acid {1-[5-(1,1-difluoro-ethyl)-furan-2-ylmethyl]-1H-pyrazol-3-yl}-amide] | 6.51

More lines, now with the values ahead:

pEC50 | Structure (SMILES)
5.83 | CC(=O)c1cc(Cn2cc(NC(=O)c3ncoc3-c3ccccc3)cn2)on1 [Example 362, 5-Phenyl-oxazole-4-carboxylic acid [1-(3-acetyl-isoxazol-5-ylmethyl)-1H-pyrazol-4-yl]-amide]
6.74 | CC(=O)c1csc(Cn2ccc(NC(=O)c3ncoc3-c3cccc(N(C)C)c3)n2)n1 [Example 449, 5-(3-Dimethylamino-phenyl)-oxazole-4-carboxylic acid [1-(4-acetyl-thiazol-2-ylmethyl)-1H-pyrazol-3-yl]-amide]
7.24 | CC(=O)c1cc(Cn2cc(NC(=O)OCc3ccccc3Cl)cn2)ccn1 [Example 407, [1-(2-Acetyl-pyridin-4-ylmethyl)-1H-pyrazol-4-yl]-carbamic acid 2-chloro-benzyl ester]
7.21 | COCc1nc(C(=O)Nc2cnn(Cc3ccc(C(C)=O)o3)c2)c(-c2ccccc2)o1 [Example 416, 2-Methoxymethyl-5-phenyl-oxazole-4-carboxylic acid [1-(5-acetyl-furan-2-ylmethyl)-1H-pyrazol-4-yl]-amide]
6.94 | CC(=O)c1ccc(Cn2cc(NC(=O)c3nc(C(C)C)oc3-c3ccccc3)cn2)o1 [Example 424, 2-Isopropyl-5-phenyl-oxazole-4-carboxylic acid [1-(5-acetyl-furan-2-ylmethyl)-1H-pyrazol-4-yl]-amide]
6.09 | CC(=O)c1cccc(Cn2cc(NC(=O)c3ncoc3-c3ccccc3)cn2)n1 [Example 364, 5-Phenyl-oxazole-4-carboxylic acid [1-(6-acetyl-pyridin-2-ylmethyl)-1H-pyrazol-4-yl]-amide]
7.47 | CC(=O)c1nc(Cn2cc(NC(=O)OCc3ccccc3Cl)cn2)co1 [Example 466, [1-(2-Acetyl-oxazol-4-ylmethyl)-1H-pyrazol-4-yl]-carbamic acid 2-chloro-benzyl ester]
7.74 | COCCc1cccc(-c2ocnc2C(=O)Nc2ccn(Cc3ccc(C(C)=O)o3)n2)c1 [Example 379, 5-[3-(2-Methoxy-ethyl)-phenyl]-oxazole-4-carboxylic acid [1-(5-acetyl-furan-2-ylmethyl)-1H-pyrazol-3-yl]-amide]
5.96 | CC(F)(F)c1csc(Cn2ccc(NC(=O)c3ncoc3-c3ccccc3)n2)n1 [Example 461, 5-Phenyl-oxazole-4-carboxylic acid {1-[4-(1,1-difluoro-ethyl)-thiazol-2-ylmethyl]-1H-pyrazol-3-yl}-amide]
6.40 | CC(=O)c1cncc(Cn2cc(NC(=O)OCc3ccccc3Cl)cn2)c1 [Example 382, [1-(5-Acetyl-pyridin-3-ylmethyl)-1H-pyrazol-4-yl]-carbamic acid 2-chloro-benzyl ester]
6.84 | CC(=O)c1ncc(Cn2ccc(NC(=O)c3ncoc3-c3ccccc3)n2)o1 [Example 440, 5-Phenyl-oxazole-4-carboxylic acid [1-(2-acetyl-oxazol-5-ylmethyl)-1H-pyrazol-3-yl]-amide]
7.14 | CC(=O)c1cnc(Cn2ccc(NC(=O)c3ncoc3-c3ccccc3)n2)o1 [Example 465, 5-Phenyl-oxazole-4-carboxylic acid [1-(5-acetyl-oxazol-2-ylmethyl)-1H-pyrazol-3-yl]-amide]
7.22 | CC(=O)c1ccc(Cn2ccc(NC(=O)c3nc(C)oc3-c3cccc(-c4ccccc4)c3)n2)o1 [Example 354, 5-Biphenyl-3-yl-2-methyl-oxazole-4-carboxylic acid [1-(5-acetyl-furan-2-ylmethyl)-1H-pyrazol-3-yl]-amide]
6.31 | CS(=O)(=O)c1ccc(Cn2cc(NC(=O)c3ncoc3-c3ccccc3)cn2)o1 [Example 413, 5-Phenyl-oxazole-4-carboxylic acid [1-(5-methanesulfonyl-furan-2-ylmethyl)-1H-pyrazol-4-yl]-amide]
7.64 | CC(=O)c1ccc(Cn2cc(NC(=O)c3ncoc3-c3cccc(C#N)c3)cn2)s1 [Example 397, 5-(3-Cyano-phenyl)-oxazole-4-carboxylic acid [1-(5-acetyl-thiophen-2-ylmethyl)-1H-pyrazol-4-yl]-amide]
6.63 | CC(=O)c1ccc(Cn2ccc(NC(=O)c3nc(C)oc3-c3cccc(OC(F)(F)F)c3)n2)s1 [Example 392, 2-Methyl-5-(3-trifluoromethoxy-phenyl)-oxazole-4-carboxylic acid [1-(5-acetyl-thiophen-2-ylmethyl)-1H-pyrazol-3-yl]-amide]
7.37 | CC(=O)CCCCn1cc(NC(=O)OCc2nc3ccccc3s2)cn1 [Example 462, [1-(5-Oxo-hexyl)-1H-pyrazol-4-yl]-carbamic acid benzothiazol-2-ylmethyl ester]
6.09 | CC(=O)c1nc(Cn2cc(NC(=O)OCc3ccccc3Cl)cn2)cs1 [Example 409, [1-(2-Acetyl-thiazol-4-ylmethyl)-1H-pyrazol-4-yl]-carbamic acid 2-chloro-benzyl ester]
7.25 | CC(=O)c1cccc(Cn2cc(NC(=O)OCc3ccccc3Cl)cn2)c1 [Example 366, [1-(3-Acetyl-benzyl)-1H-pyrazol-4-yl]-carbamic acid 2-chloro-benzyl ester]
